In patent US12102644B2, “Compounds and methods of promoting myelination” (Case Western Reserve University, priority 2019, dated 2024):
Entries after “also recorded” stand apart in the source; their conditions may differ. Each block holds one molecule with its values, some of them ahead of it.

Legend:
NR2C2 = experiment: NR2C2-mediated NGFI-A promoter luciferase reporter; format: cell-based; conditions: 2,2-dimethylzymosterol 5 μM
Description: (§1) FIGS. 6(A-D) illustrate images and graphs showing the effect of 8,9-unsaturated sterols on nuclear hormone receptors and SREBP2 activity: a) Luciferase reporter assays were used to assess if 2,2-Dimethylzymosterol (5 μM), Ketoconazole (2.5 μM), and TASIN-1 (250 nM) modulate human ERα, GR, LXRβ, NFkB, NRF2, PGR, PPARδ, PPARγ, RARα, RARγ, RXRα, RXRβ, TRα, TRβ and VDR transcriptional activity in agonist mode and ERRα, RORα and RORγ in inverse-agonist mode. […]

[1] = test system: human ERα, GR, LXRβ, NFkB, NRF2, PGR, PPARδ, PPARγ, RARα, RARγ, RXRα, RXRβ, TRα, TRβ, VDR, ERRα, RORα and RORγ; experiment: Luciferase reporter assays for 18 nuclear hormone receptors; format: cell-based; conditions: 2,2-Dimethylzymosterol 5 μM, Ketoconazole 2.5 μM, TASIN-1 250 nM
Description: FIGS. 6(A-D) illustrate images and graphs showing the effect of 8,9-unsaturated sterols on nuclear hormone receptors and SREBP2 activity: a) Luciferase reporter assays were used to assess if 2,2-Dimethylzymosterol (5 μM), Ketoconazole (2.5 μM), and TASIN-1 (250 nM) modulate human ERα, GR, LXRβ, NFkB, NRF2, PGR, PPARδ, PPARγ, RARα, RARγ, RXRα, RXRβ, TRα, TRβ and VDR transcriptional activity in agonist mode and ERRα, RORα and RORγ in inverse-agonist mode. Measurements are shown as percentage of positive control, n=2 replicates per condition and n=3 replicates per condition for the controls. b) Effects of sterols (T-MAS 5 μM, FF-MAS 10 μM) and small molecules (Ketoconazole 2.5 μM, TASIN-1 100 nM) on the NR2F1-mediated activation of a NGFI-A promoter driven luciferase reporter in comparison to cells containing the reporter only (Ctrl.) or untreated. n=2 replicates per condition, with triplicate measurements per replicate. c) Effects of 2,2-dimethylzymosterol (5 μM) on the NR2C2 mediated activation of a NGFI-A promoter driven luciferase reporter in comparison to cells infected with reporter only, untreated, or treated with a previously reported positive control (all-trans retinoic acid, ATRA, 5 μM). n=2 replicates per condition, with triplicate measurements per replicate. d) LSS, DHCR7, LDLR mRNA levels measured by RT-qPCR following 24 h treatment with DMSO, Mevastatin (2.5 μM), Ro 48-8071 (500 nM), Ketoconazole (2.5 μM), TASIN-1 (100 nM), or Amorolfine (100 nM). n=2 replicates, with triplicate qPCR measurements per replicate. Experiments in panels b-d are representative of two indpedendent experiments.

[2] = test system: mouse epiblast stem cell-derived OPCs; experiment: In vitro OPC differentiation assay (percentage of MBP+ oligodendrocytes, high-content imaging); format: cell-based; conditions: for formation of MBP+ oligodendrocytes from OPCs / formation of MBP+ oligodendrocytes in combination with ketoconazole: 72 h; for formation of MBP+ oligodendrocytes from OPCs: differentiation-permissive conditions; for formation of MBP+ oligodendrocytes in combination with ketoconazole: co-treatment with ketoconazole 2.5 μM
Description: To rigorously assess effects of small molecule and genetic treatments on OPCs, all treatments were assayed in two batches of epiblast stem cell-derived OPCs, and key results were confirmed using mouse primary OPCs. OPCs were generated from two separate EpiSC lines, EpiSC5 (giving rise to OPC-5 OPCs) and 12901 (giving rise to OPC-1 OPCs). EpiSC-derived OPCs were obtained using in vitro differentiation protocols and culture conditions described previously. To ensure uniformity throughout all in vitro screening experiments, EpiSC-derived OPCs were sorted to purity by fluorescence activated cell sorting at passage five with conjugated CD 140a-APC (eBioscience, 17-1401; 1:80) and NG2-AF488 (Millipore, AB[…]; 1:100) antibodies. Sorted batches of OPCs were expanded and frozen down in aliquots. OPCs were thawed into growth conditions for one passage before use in further assays. Cultures were regularly tested and shown to be mycoplasma free. EpiSC-derived OPCs were grown and expanded in poly-ornithine (PO) and laminin-coated flasks with growth medium (DMEM/F12 supplemented with N2-MAX (R&D Systems), B-27 (ThermoFisher), GlutaMax (Gibco), FGF2 ([…], R&D systems, 233-FB-025) and PDGF-AA ([…], R&D systems, 233-AA-050) before harvesting for plating. The cells were seeded onto poly-D-[…]-well CellCarrier plates (PerkinElmer) coated with laminin (Sigma, L2020; 15 μg/ml) using multi-channel pipet. For the experiment, 800,000 cells/mL stock in differentiation medium (DMEM/F12 supplemented with N2-MAX and B-27) was prepared and stored on ice for 2 h. Then, 40,000 cells were seeded per well in differentiation medium and allowed to attach for 30 min before addition of drug. For dose-response testing of all molecules except sterols, a 1000× compound stock in dimethyl sulphoxide (DMSO) was added to assay plates with 0.1 μL solid pin multi-blot replicators (V & P Scientific; VP 409), resulting in a final primary screening concentration of 1×. Sterols were added to cells as an ethanol solution (0.2% final ethanol concentration). Positive control wells (ketoconazole, 2.5 μM) and DMSO vehicle controls were included in each assay plate. Cells were incubated under standard conditions (37° C., 5% CO2) for 3 days and fixed with 4% paraformaldehyde (PFA) in phosphate buffered saline (PBS) for 20 min. Fixed plates were washed with PBS (200 μL per well) twice, permeabilized with 0.1% Triton X-100 and blocked with 10% donkey serum (v/v) in PBS for 40 min. Then, cells were labelled with MBP antibodies (Abcam, ab7349; 1:200) for 16 h at 4° C. followed by detection with Alexa Fluor conjugated secondary antibodies (1:500) for 45 min. Nuclei were visualized by DAPI staining (Sigma; 1 μg/ml). During washing steps, PBS was added using a multi-channel pipet and aspiration was performed using Biotek EL406 washer dispenser (Biotek) equipped with a 96-well aspiration manifold. Plates were imaged on the Operetta High Content Imaging and Analysis system (PerkinElmer) and a set of 6 fields captured from each well resulting in an average of 1200 cells being scored per well. Analysis (PerkinElmer Harmony and Columbus software) began by identifying intact nuclei stained by DAPI; that is, those traced nuclei that were larger than 300 μm^2 in surface area. Each traced nucleus region was then expanded by 50% and cross-referenced with the […] (MBP) stain to identify oligodendrocyte nuclei, and from this the percentage of oligodendrocytes was calculated. In some experiments, the total process length of MBP^+ oligodendrocytes was calculated as previously described.

rat CYP51 = molecular target: T1, rat CYP51 (Rattus norvegicus, UniProt Q64654); experiment: biochemical
T1 sequence (Q64654 1-503): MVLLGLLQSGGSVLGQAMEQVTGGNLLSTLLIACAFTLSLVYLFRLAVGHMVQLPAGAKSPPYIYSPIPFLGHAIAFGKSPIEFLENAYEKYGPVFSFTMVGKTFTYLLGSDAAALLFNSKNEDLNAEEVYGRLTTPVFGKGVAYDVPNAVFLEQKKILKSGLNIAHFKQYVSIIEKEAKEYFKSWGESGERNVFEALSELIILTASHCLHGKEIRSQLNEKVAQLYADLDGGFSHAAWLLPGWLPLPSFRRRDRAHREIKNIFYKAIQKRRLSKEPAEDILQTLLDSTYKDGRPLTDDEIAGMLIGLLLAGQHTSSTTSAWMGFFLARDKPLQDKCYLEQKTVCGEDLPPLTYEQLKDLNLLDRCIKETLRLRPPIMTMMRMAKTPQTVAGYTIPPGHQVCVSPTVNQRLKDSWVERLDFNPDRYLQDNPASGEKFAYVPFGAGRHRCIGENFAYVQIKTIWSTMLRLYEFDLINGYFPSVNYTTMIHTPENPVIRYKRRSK

[3] = test system: EpiSC-derived OPCs on microfibers; experiment: Oligodendrocyte formation on electrospun microfibers; format: cell-based, mouse; conditions: 14 days
Description: A 12-well plate containing Mimetex aligned scaffold (microfiber plate, AMSBIO, AMS.TECL-006-1X, Electrospun poly-L-lactide Scaffold, […] cell crown inserts) was prepared as previously described. Briefly, inserts were sterilized with 70% ethanol and washed with PBS before being coated with polyornithine and laminin. After laminin coating, 100,000 cells/mL of EpiSC-derived OPCs were plated in differentiation medium. After 24 h the media was replaced with fresh media containing small molecule treatments. Every 48 h the media was replaced with fresh compound containing media for a total of 14 days. Plates were fixed with 4% PFA, permeabilized with 0.1% Triton X-100, and blocked with 10% donkey serum (v/v) in PBS for 60 min. Plates were stained for MBP (Abcam, ab7349; 1:100) and DAPI staining (Sigma; 5 μg/ml). After staining, the inserts were moved into new 12-well plate and covered with 2 mL of PBS before imaging in Operetta high content Imaging and analysis system. Plates were imaged on the Operetta High Content Imaging and Analysis system (PerkinElmer) and a set of 8 fields captured from each well resulting in an average of 45,000 cells being scored per well. Analysis (PerkinElmer Harmony and Columbus software) identified intact nuclei stained by DAPI and calculated the MBP signal intensity per cell per well. Microfiber insert tracking images were taken using a Leica DMi8 with a 20× Dry/NA 0.40 objective. Microfiber plate inserts were mounted using Flouromount-G (SouthernBiotech) and allowed to partially harden before coverslips were added and the insert ring was removed. Confocal images were obtained on a Leica SP8 confocal scanning microscope, with 40× oil/NA 1.30 objective. Confocal stacks of 0.336 μm z-steps were taken at 1024×1024. Each fluorophore was excited sequentially and all contrast and brightness changes were applied consistently between images.

NR2F1 = experiment: NR2F1-mediated NGFI-A promoter luciferase reporter; format: cell-based; conditions: Ketoconazole 2.5 μM, TASIN-1 100 nM
Description: as §1

estrogen receptor = conditions: cited from earlier work
[4] = test system: sterol levels in OPCs (cholesterol biosynthesis pathway); experiment: GC/MS-based sterol profiling in OPCs; format: cell-based, mouse; conditions: 24 h treatment
EBP = molecular target: T2, EBP (Mus musculus, UniProt P70245); experiment: EBP enzymatic assay (GC/MS); format: biochemical; conditions: small molecules 10 μM, zymostenol 25 μM, 2 h
T2 construct: active EBP was obtained from mouse microsomes; from tissue
T2 sequence (P70245 1-230): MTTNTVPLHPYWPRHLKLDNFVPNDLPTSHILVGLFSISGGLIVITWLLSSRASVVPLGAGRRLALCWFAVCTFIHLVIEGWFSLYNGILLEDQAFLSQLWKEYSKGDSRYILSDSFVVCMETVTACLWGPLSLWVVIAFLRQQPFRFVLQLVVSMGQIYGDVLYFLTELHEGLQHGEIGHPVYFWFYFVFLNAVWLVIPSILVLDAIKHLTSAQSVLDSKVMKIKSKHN

LPC-lesioned spinal cord [5] = experiment: LPC focal demyelination of spinal cord, remyelination histology; format: in vivo, mouse; conditions: ifenprodil 10 mg per kg or tamoxifen 2 mg per kg, daily i.p., 8 days from day 4 after lesion
LPC-lesioned spinal cord [6] = conditions: previously established by the inventors; cited from earlier work
[7] = test system: human induced pluripotent stem cell-derived cortical spheroids; experiment: Sterol profiling in human iPSC-derived cortical spheroids; format: cell-based

Molecule: CC(=O)N1CCN(c2ccc(OCC3COC(Cn4ccnc4)(c4ccc(Cl)cc4Cl)O3)cc2)CC1 (stereo not shown) [ketoconazole, Ketoconazole]
IC50 (rat CYP51): 300 to 700 nM
MBP+ oligodendrocyte tracking along and wrapping of microfibers [3]: significantly enhanced MBP+ oligodendrocyte tracking along and wrapping of the microfibers
agonist activity in NHR reporter assays [1]: no molecule showed significant agonist activity in any assay
NR2F1-mediated reporter activation (NR2F1): ineffective
formation of MBP+ oligodendrocytes from OPCs [2]: enhanced formation of MBP^+ oligodendrocytes

Molecule: CCC(C)(C)c1ccc(CC(C)CN2C[C@@H](C)O[C@@H](C)C2)cc1 (stereo partly shown) [amorolfine, Amorolfine]
MBP+ oligodendrocyte tracking along and wrapping of microfibers [3]: significantly enhanced MBP+ oligodendrocyte tracking along and wrapping of the microfibers
formation of MBP+ oligodendrocytes from OPCs [2]: enhanced formation of MBP^+ oligodendrocytes

Molecule: CC/C(=C(\c1ccccc1)c1ccc(OCCN(C)C)cc1)c1ccccc1 [tamoxifen, Tamoxifen]
inhibition of EBP enzymatic activity (EBP): clear inhibition
accumulation of sterol intermediates in OPCs (enzyme inhibition in OPCs, e.g. EBP) [4]: induced accumulation of zymostenol and zymosterol and decreased basal sterol levels; also recorded: inhibit EBP in OPCs
formation of MBP+ oligodendrocytes from OPCs [2]: enhance the formation of oligodendrocytes with comparable potency
formation of MBP+ oligodendrocytes in combination with ketoconazole [2]: did not enhance differentiation above levels seen for ketoconazole alone
remyelination of LPC lesion (LPC-lesioned spinal cord [5]): remyelination was widespread throughout the lesion

Second part, led by results:

NR2C2-mediated reporter activation (NR2C2): ineffective
EC50 ([2]; OPC-5 and OPC-1, 72 h, read-out: EC50 for enhancing oligodendrocyte formation): 1000 to 2000 nM
Molecule: CC(C)=CCC[C@@H](C)[C@H]1CC[C@H]2C3=C(CC[C@]12C)[C@@]1(C)CC(C)(C)[C@H](O)C[C@@H]1CC3 [2,2-dimethylzymosterol]
agonist activity in NHR reporter assays [1]: no molecule showed significant agonist activity in any assay
formation of MBP+ oligodendrocytes from OPCs [2]: maximally potent enhancers of oligodendrocyte formation among the 8,9-unsaturated sterols tested
formation of MBP+ oligodendrocytes in combination with ketoconazole [2]: no further benefit over ketoconazole alone

accumulation of sterol intermediates in OPCs (enzyme inhibition in OPCs, e.g. EBP) [4]: inhibit EBP in OPCs
Molecule: 4-hydroxytamoxifen
potency as estrogen receptor modulator relative to tamoxifen (estrogen receptor): 100 fold
formation of MBP+ oligodendrocytes from OPCs [2]: enhance the formation of oligodendrocytes with comparable potency

inhibition of EBP enzymatic activity (EBP): clear inhibition
NR2F1-mediated reporter activation (NR2F1): ineffective
Molecule: COc1ccc(S(=O)(=O)N2CCC(N3CCC(C)CC3)CC2)cc1 [TASIN-1]
MBP+ oligodendrocyte tracking along and wrapping of microfibers [3]: significantly enhanced MBP+ oligodendrocyte tracking along and wrapping of the microfibers
agonist activity in NHR reporter assays [1]: no molecule showed significant agonist activity in any assay
formation of MBP+ oligodendrocytes from OPCs [2]: enhanced formation of MBP^+ oligodendrocytes

IC50 (rat CYP51): 300 to 700 nM
Molecule: Clc1ccc(COC(Cn2ccnc2)c2ccc(Cl)cc2Cl)c(Cl)c1 (stereo not shown) [miconazole, Miconazole]
remyelination in mouse models of demyelination (earlier work) (LPC-lesioned spinal cord [6]): enhances remyelination in mouse models of demyelination
8,9-unsaturated sterol accumulation in human cortical spheroids [7]: led to 8,9-unsaturated sterol accumulation
